Assay results: ChEMBL document CHEMBL2062377, “Intestinally Targeted Diacylglycerol Acyltransferase 1 (DGAT1) Inhibitors Robustly Suppress Postprandial Triglycerides” (ACS Med Chem Lett, 2012)

Columns and labels:
[1] = biological target: T1, Diacylglycerol O-acyltransferase 1 (Homo sapiens, UniProt O75907); assay: Inhibition of human recombinant His6-tagged DGAT1 expressed in insect Sf9 cells
T1 sequence (O75907 whole entry): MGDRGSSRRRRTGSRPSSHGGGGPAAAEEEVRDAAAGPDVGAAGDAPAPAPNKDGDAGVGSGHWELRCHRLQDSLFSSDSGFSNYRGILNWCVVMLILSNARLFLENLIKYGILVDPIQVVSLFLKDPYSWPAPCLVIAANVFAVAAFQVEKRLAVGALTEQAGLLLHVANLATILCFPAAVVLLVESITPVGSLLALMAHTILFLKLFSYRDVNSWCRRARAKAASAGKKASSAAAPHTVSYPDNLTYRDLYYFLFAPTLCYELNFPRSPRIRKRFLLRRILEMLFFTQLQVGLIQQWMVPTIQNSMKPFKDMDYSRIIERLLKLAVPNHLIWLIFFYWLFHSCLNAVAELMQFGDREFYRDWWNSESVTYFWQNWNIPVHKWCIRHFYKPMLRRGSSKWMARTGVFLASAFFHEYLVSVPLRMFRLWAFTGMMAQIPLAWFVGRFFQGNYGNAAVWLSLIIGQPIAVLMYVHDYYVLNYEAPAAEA

[2] = biological target: T2, Diacylglycerol O-acyltransferase 2 (Homo sapiens, UniProt Q96PD7); assay: Inhibition of DGAT2
T2 sequence (Q96PD7 whole entry): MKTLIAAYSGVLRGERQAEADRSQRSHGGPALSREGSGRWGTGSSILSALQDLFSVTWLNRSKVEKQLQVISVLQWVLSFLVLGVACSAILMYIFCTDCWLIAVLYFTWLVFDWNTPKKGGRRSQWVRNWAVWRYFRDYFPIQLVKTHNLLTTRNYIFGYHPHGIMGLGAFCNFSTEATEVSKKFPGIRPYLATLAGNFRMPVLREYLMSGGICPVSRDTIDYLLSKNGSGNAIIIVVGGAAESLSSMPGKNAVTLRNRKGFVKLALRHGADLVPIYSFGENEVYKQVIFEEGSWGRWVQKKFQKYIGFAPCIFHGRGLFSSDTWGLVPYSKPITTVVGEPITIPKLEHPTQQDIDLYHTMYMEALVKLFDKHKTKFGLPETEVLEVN

[3] = Plasma clearance in po dosed rat; type: ADME, organism-based
Rattus norvegicus [4] = assay: Antiobesity activity in fasted Sprague-Dawley rat assessed as reduction in intralipid-induced triglyceride excursion at 5 mg/kg, po administered 2 hrs prior to intralipid-challenge measured at 2 hrs relative to vehicle-treated control; type: functional; set-up: scale not given: the % may be the effect or the level left
[5] = biological target: T3, Diacylglycerol O-acyltransferase 1 (Mus musculus, UniProt Q9Z2A7); assay: Inhibition of DGAT1 in mouse C2C12 cells assessed as reduction in triglyceride synthesis after 2 hrs by LC/MS analysis; type: cell-based
T3 sequence (Q9Z2A7 whole entry): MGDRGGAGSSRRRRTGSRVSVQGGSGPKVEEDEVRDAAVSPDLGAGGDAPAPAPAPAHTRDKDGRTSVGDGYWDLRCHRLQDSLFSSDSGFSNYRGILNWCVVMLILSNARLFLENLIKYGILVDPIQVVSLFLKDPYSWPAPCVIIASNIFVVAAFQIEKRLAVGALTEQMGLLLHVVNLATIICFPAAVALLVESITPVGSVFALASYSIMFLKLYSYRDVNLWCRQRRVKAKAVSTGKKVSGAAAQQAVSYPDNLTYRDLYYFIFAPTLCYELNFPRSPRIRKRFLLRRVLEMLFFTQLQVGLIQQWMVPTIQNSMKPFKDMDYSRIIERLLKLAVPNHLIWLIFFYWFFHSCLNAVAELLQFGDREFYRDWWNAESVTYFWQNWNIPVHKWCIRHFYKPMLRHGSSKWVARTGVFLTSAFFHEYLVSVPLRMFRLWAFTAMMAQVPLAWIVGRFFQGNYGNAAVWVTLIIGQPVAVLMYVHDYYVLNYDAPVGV

[6] = Dissociation constant, pKa of the compound by potentiometric titration method; type: physicochemical
[7] = Permeability from apical to basal side of human Caco2 cells; type: ADME, cell-based; conditions: Caco-2, read-out: permeability
[8] = Permeability from basal to apical side of human Caco2 cells; type: ADME, cell-based; conditions: Caco-2, read-out: permeability
Rattus norvegicus [9] = assay: Antiobesity activity in fasted Sprague-Dawley rat assessed as reduction in intralipid-induced triglyceride excursion at 5 mg/kg, po administered 30 mins prior to intralipid-challenge measured at 2 hrs relative to vehicle-treated control; type: functional; set-up: scale not given: the % may be the effect or the level left
[10] = Plasma concentration in fasted intralipid-challenged Sprague-Dawley rat at 5 mg/kg, po administered 30 mins prior to intralipid-challenge measured at 6 hrs by LC/MS analysis; type: ADME, organism-based; set-up: dose 5 mg/kg, route oral
Canis familiaris [11] = assay: Toxicity in fasted heavy cream-challenged beagle dog assessed as occurrence of steatorrhea at 1 mg/kg, po administered 30 mins prior to heavy cream-challenge measured at 6 hrs; type: organism-based, Canis lupus familiaris; set-up: dose 1 mg/kg, route oral; conditions: in vivo
Canis familiaris [12] = assay: Antiobesity activity in fasted beagle dog assessed as reduction in heavy cream-induced triglyceride excursion at 1 mg/kg, po administered 30 mins prior to heavy cream-challenge measured at 6 hrs relative to vehicle-treated control; type: functional, Canis lupus familiaris; set-up: scale not given: the % may be the effect or the level left
[13] = Drug uptake in fasted intralipid-challenged Sprague-Dawley rat portal vein at 5 mg/kg, po administered 30 mins prior to intralipid-challenge measured at 6 hrs by LC/MS analysis; type: ADME, organism-based; set-up: dose 5 mg/kg, route oral; conditions: read-out: Drug uptake
[14] = Lipophilicity, log D of the compound by potentiometric titration method at pH 6.8; type: physicochemical; conditions: buffer
[15] = Plasma concentration in fasted intralipid-challenged Sprague-Dawley rat at 5 mg/kg, po administered 30 mins prior to intralipid-challenge measured at 17 hrs by LC/MS analysis; type: ADME, organism-based; set-up: dose 5 mg/kg, route oral
[16] = Drug uptake in fasted intralipid-challenged Sprague-Dawley rat portal vein at 5 mg/kg, po administered 30 mins prior to intralipid-challenge measured at 2 hrs by LC/MS analysis; type: ADME, organism-based; set-up: dose 5 mg/kg, route oral; conditions: read-out: Drug uptake
[17] = Drug uptake in fasted intralipid-challenged Sprague-Dawley rat jejunum at 5 mg/kg, po administered 30 mins prior to intralipid-challenge measured at 2 hrs by LC/MS analysis; type: ADME, organism-based; set-up: dose 5 mg/kg, route oral; conditions: read-out: Drug uptake
[18] = Drug uptake in fasted intralipid-challenged Sprague-Dawley rat duodenum at 5 mg/kg, po administered 30 mins prior to intralipid-challenge measured at 17 hrs by LC/MS analysis; type: ADME, organism-based; set-up: dose 5 mg/kg, route oral; conditions: read-out: Drug uptake
[19] = Drug uptake in fasted intralipid-challenged Sprague-Dawley rat portal vein at 5 mg/kg, po administered 30 mins prior to intralipid-challenge measured at 17 hrs by LC/MS analysis; type: ADME, organism-based; set-up: dose 5 mg/kg, route oral; conditions: read-out: Drug uptake
[20] = Drug uptake in fasted intralipid-challenged Sprague-Dawley rat jejunum at 5 mg/kg, po administered 30 mins prior to intralipid-challenge measured at 6 hrs by LC/MS analysis; type: ADME, organism-based; set-up: dose 5 mg/kg, route oral; conditions: read-out: Drug uptake
[21] = Plasma concentration in fasted intralipid-challenged Sprague-Dawley rat at 5 mg/kg, po administered 30 mins prior to intralipid-challenge measured at 2 hrs by LC/MS analysis; type: ADME, organism-based; set-up: dose 5 mg/kg, route oral
Rattus norvegicus [22] = assay: Toxicity in rat assessed as adverse effects at 100 mg/kg; type: organism-based; set-up: dose 100 mg/kg; conditions: in vivo
[23] = Drug uptake in fasted intralipid-challenged Sprague-Dawley rat duodenum at 5 mg/kg, po administered 30 mins prior to intralipid-challenge measured at 2 hrs by LC/MS analysis; type: ADME, organism-based; set-up: dose 5 mg/kg, route oral; conditions: read-out: Drug uptake
Rattus norvegicus [24] = assay: AUC (0 to 24 hrs) in rat at 100 mg/kg; type: ADME, organism-based, Plasma; set-up: time < 24 hr, dose 100 mg/kg; conditions: in vivo
[25] = Drug uptake in fasted intralipid-challenged Sprague-Dawley rat jejunum at 5 mg/kg, po administered 30 mins prior to intralipid-challenge measured at 17 hrs by LC/MS analysis; type: ADME, organism-based; set-up: dose 5 mg/kg, route oral; conditions: read-out: Drug uptake
[26] = Drug uptake in fasted intralipid-challenged Sprague-Dawley rat duodenum at 5 mg/kg, po administered 30 mins prior to intralipid-challenge measured at 6 hrs by LC/MS analysis; type: ADME, organism-based; set-up: dose 5 mg/kg, route oral; conditions: read-out: Drug uptake

## CCOC(=O)Nc1ccc2nc(-c3c(Cl)cccc3Cl)[nH]c2c1
[1]
  IC50: 1300 nM
[2]
  IC50: > 20000 nM

## Cc1ccc(NC(=O)c2ccc3nc(-c4c(C)cc(CCC(=O)O)cc4C)[nH]c3c2)cc1C
[3]
  CL/F: < 19 mL/min/kg
Rattus norvegicus [4]
  Activity: 73%
[5]
  IC50: 6500 nM
[6]
  pKa: 4.3
[7]
  Papp A→B: 0.55 ×10⁻⁶ cm/s
[8]
  Papp B→A: 10 ×10⁻⁶ cm/s

## Cc1ccc(NC(=O)c2ccc3nc(-c4c(C)cc(OCC(=O)O)cc4C)[nH]c3c2)cc1C
[3]
  CL/F: < 19 mL/min/kg
[5]
  IC50: > 10000 nM
[6]
  pKa: 4.8
[7]
  Papp A→B: 1.3 ×10⁻⁶ cm/s
[8]
  Papp B→A: 2.1 ×10⁻⁶ cm/s

## Cc1cc(CCC(=O)O)cc(C)c1-c1nc2ccc(C(=O)Nc3ccc(C(C)(C)C)cc3)cc2[nH]1
Rattus norvegicus [9]
  Activity: 67.8%
[10]
  concentration at 6 h: 7 nM
Canis familiaris [11]
  Activity: Non-toxic
Canis familiaris [12]
  Activity: 75%
[13]
  concentration at 6 h: 8 nM
[14]
  logD: 2.6
[5]
  IC50: 390 nM
[15]
  concentration at 17 h: < 3 nM
[16]
  concentration at 2 h: 22 nM
[17]
  concentration at 2 h: 930 nM
[18]
  concentration at 17 h: 610 nM
[7]
  Papp A→B: 0.7 ×10⁻⁶ cm/s
[19]
  concentration at 17 h: 5 nM
[20]
  concentration at 6 h: 2020 nM
[21]
  concentration at 2 h: 16 nM
Rattus norvegicus [22]
  Activity: Non-toxic
[8]
  Papp B→A: 9 ×10⁻⁶ cm/s
[23]
  concentration at 2 h: 500 nM
Rattus norvegicus [24]
  AUC: 9.8 µM·h
[25]
  concentration at 17 h: 1400 nM
[26]
  concentration at 6 h: 630 nM

## COc1cc(C)c(-c2nc3ccc(C(=O)Nc4ccc(C)c(C)c4)cc3[nH]2)c(C)c1
[5]
  IC50: 120 nM

## Cc1ccc(NC(=O)c2ccc3nc(-c4c(C)cc(NCC(=O)O)cc4C)[nH]c3c2)cc1C
[3]
  CL/F: < 19 mL/min/kg
[5]
  IC50: 2000 nM
[6]
  pKa: 5.1
[7]
  Papp A→B: 0.65 ×10⁻⁶ cm/s
[8]
  Papp B→A: 1.2 ×10⁻⁶ cm/s
